Data published in patent publication US10973922B2, “Glycoprotein-toxic payload conjugates” (GLYKOS FINLAND OY, priority 2013, dated 2021).
Where a SMILES comes first, the peptide text is derived from it. [ ]: non-standard residue; d: D form. Dolaproine = CO[C@@H]([C@@H]1CCCN1)[C@@H](C)C(=O)O; Dil = CC[C@H](C)[C@H](NC)[C@@H](CC(=O)O)OC; NMeV = CN[C@H](C(=O)O)C(C)C

Experiments:
[1] = tested on: SKOV-3 ovarian cancer cell; test: In vitro cytotoxicity of dolastatin derivatives (PrestoBlue cell viability); assay type: cell-based, Human; conditions: for IC50: concentration range wherein SKOV-3 cell viability falls to 50%, 96 h, measured range 1 nM-10 μM; for cytotoxicity compared to 1 (MMAF): SKOV-3, applied to cell culture medium; for cytotoxicity compared to 2 (monomethyldolastatin 10): SKOV-3
Experimental: Human ovarian cancer cell line SKOV-3 was from the ATCC (Manassas, Va., USA). The cells were grown according to the manufacturer's recommendations. Log phase cultures were collected and 5000 cells/well were seeded onto 96-well plates and incubated for 24 h. Serial dilutions of test molecules from a stock solution of 100 μM in 10% DMSO were made in cell culture medium, added to cells (maximum concentration of dimethylsulphoxide was 1%) and cultures were incubated further for 96 h. Cell viability was evaluated using PrestoBlue cell viability reagent (Life Technologies, Carlsbad, Calif., USA) according to the manufacturer's instructions. Cells were incubated for 2 h, and dye reduction was measured by absorbance at 570 nm. The compounds were assayed 1-2 times in triplicate.
Results of an exemplary assay are shown in FIG. 1, in which compound numbering is according to Example 1. The results are expressed in Table 1 as IC50 values of the analyzed derivatives.

[2] = Hydrophilicity by reverse-phase HPLC elution; assay type: physicochemical; conditions: C-18 reverse-phase column, eluted at lower ACN concentration
Text: The products were purified by Äkta purifier 10 (GE Healthcare) HPLC instrument with Gemini-NX-5u C-18 reverse-phase column (4.6×250 mm, 110 Å (Phenomenex)) eluted with ACN gradient in aqueous ammonium hydrogen carbonate or aqueous trifluoroacetic acid.

C#CCCN(C)C(C(=O)NC(C(=O)N(C)C(C(C)CC)C(CC(=O)N1CCCC1C(OC)C(C)C(=O)NC(Cc1ccccc1)C(=O)O)OC)C(C)C)C(C)C (stereo not drawn) [Compound 6, N-(3-butynyl)-MMAF]
IC50 ([1]; Homo sapiens, SK-OV-3): < 0.001 µM
cytotoxicity compared to 1 (MMAF) [1]: more cytotoxic

CCC(C)C(C(CC(=O)N1CCCC1C(OC)C(C)C(=O)NC(Cc1ccccc1)C(=O)O)OC)N(C)C(=O)C(NC(=O)C(C(C)C)N(C)CCC(O)C(O)C(O)CO)C(C)C [Compound 5, N-(2-deoxy-D-glucosyl)-MMAF]
IC50 ([1]; Homo sapiens, SK-OV-3): 1 µM
cytotoxicity compared to 1 (MMAF) [1]: equally or only slightly less cytotoxic
hydrophilicity compared to MMAF (1) and N-(3-butynyl)-MMAF (6) [2]: more hydrophilic

CCC(C)C(C(CC(=O)N1CCCC1C(OC)C(C)C(=O)NC(Cc1ccccc1)c1nccs1)OC)N(C)C(=O)C(NC(=O)C(C(C)C)N(C)CC(O)C(O)C(O)C(O)CN=[N+]=[N-])C(C)C [Compound 13, N-(6-azido-6-deoxy-D-galactosyl)-dolastatin 10]
IC50 ([1]; Homo sapiens, SK-OV-3): < 0.001 µM
cytotoxicity compared to 2 (monomethyldolastatin 10) [1]: equally or only slightly less cytotoxic

CN[C@H](C(=O)N[C@H](C(=O)N(C)[C@@H](C(C)C)[C@@H](CC(=O)N1CCC[C@H]1[C@H](OC)[C@@H](C)C(=O)N[C@@H](Cc1ccccc1)c1nccs1)OC)C(C)C)C(C)C [Compound 2, monomethyldolastatin 10, reference compound]
IC50 [1]: < 0.001 µM

CCC(C)C(C(CC(=O)N1CCCC1C(OC)C(C)C(=O)NC(Cc1ccccc1)C(=O)O)OC)N(C)C(=O)C(NC(=O)C(C(C)C)N(C)CC(O)C(O)C(O)C(O)COC1OC(CO)C(O)C(O)C1O)C(C)C [Compound 8, N-[6-O-(β-D-galactopyranosyl)-D-galactosyl]-MMAF]
IC50 ([1]; Homo sapiens, SK-OV-3): 1 to 10 µM
cytotoxicity compared to 1 (MMAF) [1]: less cytotoxic

CC[C@H](C)[C@@H]([C@@H](CC(=O)N1CCC[C@H]1[C@H](OC)[C@@H](C)C(=O)N[C@@H](Cc1ccccc1)C(=O)O)OC)N(C)C(=O)[C@@H](NC(=O)[C@@H](NC)C(C)C)C(C)C [Compound 1, Monomethylauristatin F, reference compound] (H-[NMeV]V[Dil][Dolaproine]F-OH)
IC50 [1]: 0.1 to 1 µM

CCC(C)C(C(CC(=O)N1CCCC1C(OC)C(C)C(=O)NC(Cc1ccccc1)C(=O)O)OC)N(C)C(=O)C(NC(=O)C(C(C)C)N(C)C(=O)CCCC(=O)O)C(C)C (stereo not drawn) [Compound 14b, N-glutaryl-MMAF]
IC50 ([1]; Homo sapiens, SK-OV-3): 0.1 to 1 µM
cytotoxicity compared to 2 (monomethyldolastatin 10) [1]: equally or only slightly less cytotoxic

CCC(C)C(C(CC(=O)N1CCCC1C(OC)C(C)C(=O)NC(Cc1ccccc1)C(=O)O)OC)N(C)C(=O)C(NC(=O)C(C(C)C)N(C)CC(O)C(O)C(OC1OC(CO)C(O)C(OC2(C(=O)O)CC(O)C(NC(C)=O)C(C(O)C(O)CO)O2)C1O)C(O)CO)C(C)C [Compound 11, N-{4-O-[3-O-(α-N-acetylneuraminyl)-β-D-galactopyranosyl]-D-glucosyl}-MMAF]
cytotoxicity compared to 1 (MMAF) [1]: less cytotoxic
IC50 [1]: > 10 µM

N-(6-azido-6-deoxy-D-galactosyl)-MMAF [Compound 4]
IC50 [1]: 0.1 to 1 µM

N-(6-O-propargyl-D-galactosyl)-MMAF [Compound 3]
IC50 [1]: 0.1 to 10 µM

CCC(C)C(C(CC(=O)N1CCCC1C(OC)C(C)C(=O)NC(Cc1ccccc1)C(=O)O)OC)N(C)C(=O)C(NC(=O)C(C(C)C)N(C)CC(O)C(O)C(OC1OC(CO)C(OC2OC(CO)C(O)C(O)C2O)C(O)C1O)C(O)CO)C(C)C [Compound 10, N-{4-O-[4-O-(α-D-galactopyranosyl)-β-D-galactopyranosyl]-D-glucosyl}-MMAF]
IC50 ([1]; Homo sapiens, SK-OV-3): 1 to 10 µM
